Experiments:
Assay in all cases: relative viability (nuclei count vs DMSO), 5 days (fraction); higher = more cells survive
Neratinib + Decitabine = compound: CCOc1cc2ncc(C#N)c(Nc3ccc(OCc4ccccn4)c(Cl)c3)c2cc1NC(=O)/C=C/CN(C)C [Neratinib] + Nc1ncn([C@H]2C[C@H](O)[C@@H](CO)O2)c(=O)n1 [Decitabine] (partner 2 µM)
In short: (§1)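 For relative viability, nuclei counts in treated wells were divided by those in vehicle wells. Lung cancer cell lines had been pin-tool dosed in 1536-well plates the day after seeding and cultured for 5 days, then fixed and stained in one step (final 0.05% Triton X-100, 1% formaldehyde, 1 ug/ml Hoechst) and imaged at 4×. Doses were one drug alone or a fixed anchor-drug dose plus five library-drug doses (not always all listed) in √10 steps, and values are duplicate-plate medians.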

Neratinib + Bortezomib = compound: CCOc1cc2ncc(C#N)c(Nc3ccc(OCc4ccccn4)c(Cl)c3)c2cc1NC(=O)/C=C/CN(C)C [Neratinib] + CC(C)C[C@H](NC(=O)[C@H](Cc1ccccc1)NC(=O)c1cnccn1)B(O)O [Bortezomib] (partner 0.002 µM)
In short: as §1

Neratinib + Lapatinib = compound: CCOc1cc2ncc(C#N)c(Nc3ccc(OCc4ccccn4)c(Cl)c3)c2cc1NC(=O)/C=C/CN(C)C [Neratinib] + CS(=O)(=O)CCNCc1ccc(-c2ccc3ncnc(Nc4ccc(OCc5cccc(F)c5)c(Cl)c4)c3c2)o1 [Lapatinib] (partner 2 µM)
In short: as §1

Neratinib + AZD7762 = compound: CCOc1cc2ncc(C#N)c(Nc3ccc(OCc4ccccn4)c(Cl)c3)c2cc1NC(=O)/C=C/CN(C)C [Neratinib] + NC(=O)Nc1cc(-c2cccc(F)c2)sc1C(=O)N[C@H]1CCCNC1 [AZD7762] (partner 0.2 µM)
In short: as §1

Cell Line | relative viability (Neratinib + Decitabine; first compound 0.01 µM) | relative viability (Neratinib + Decitabine; first compound 0.03162 µM) | relative viability (Neratinib + Decitabine; first compound 0.1 µM) | relative viability (Neratinib + Decitabine; first compound 0.3162 µM) | relative viability (Neratinib + Decitabine; first compound 1 µM) | relative viability (Neratinib + Bortezomib; first compound 0.01 µM) | relative viability (Neratinib + Bortezomib; first compound 0.03162 µM) | relative viability (Neratinib + Bortezomib; first compound 0.1 µM) | relative viability (Neratinib + Bortezomib; first compound 0.3162 µM) | relative viability (Neratinib + Bortezomib; first compound 1 µM) | relative viability (Neratinib + Lapatinib; first compound 0.01 µM) | relative viability (Neratinib + Lapatinib; first compound 0.03162 µM) | relative viability (Neratinib + Lapatinib; first compound 0.1 µM) | relative viability (Neratinib + Lapatinib; first compound 0.3162 µM) | relative viability (Neratinib + Lapatinib; first compound 1 µM) | relative viability (Neratinib + AZD7762; first compound 0.01 µM) | relative viability (Neratinib + AZD7762; first compound 0.03162 µM) | relative viability (Neratinib + AZD7762; first compound 0.1 µM) | relative viability (Neratinib + AZD7762; first compound 0.3162 µM) | relative viability (Neratinib + AZD7762; first compound 1 µM)
NCI-H322M | 0.678 | 0.643 | 0.646 | 0.558 | 0.39 | 1.15 | 1.2 | 1.1 | 0.809 | 0.36 | 0.587 | 0.569 | 0.522 | 0.567 | 0.449 | 0.49 | 0.544 | 0.503 | 0.409 | 0.437
NCI-H460 | 0.559 | 0.527 | 0.522 | 0.459 | 0.449 | 1.22 | 1.36 |  | 1.27 | 0.587 | 1.15 | 1.38 |  | 0.921 | 0.557 | 0.654 | 0.718 | 0.639 | 0.54 | 0.265
NCI-H596 | 1.88 | 1.1 | 1 | 0.986 | 0.863 |  | 1.32 | 1.12 | 1.08 | 0.843 | 1.2 | 1.06 |  | 1.13 | 0.859 | 1.07 | 1.27 | 0.745 | 1.1 | 0.805
NCI-H647 | 0.438 | 0.453 | 0.364 | 0.358 | 0.371 |  | 0.914 | 0.586 | 0.558 | 0.664 | 0.989 | 1.27 | 0.857 | 1 | 0.802 | 0.532 | 0.568 | 0.466 | 0.457 | 0.277
NCI-H650 | 0.321 | 0.347 | 0.328 | 0.326 | 0.345 | 0.94 | 1.07 | 1.08 |  | 0.852 | 1.04 | 1.02 | 0.996 |  | 1.04 | 1.02 | 1.09 |  | 1 | 1.3
NCI-H727 | 0.897 | 0.846 |  | 0.796 | 0.717 | 0.961 | 0.914 |  | 0.893 | 0.536 | 0.898 | 0.994 |  | 0.928 | 0.786 | 0.574 | 0.568 |  | 0.497 | 0.374
NCI-H838 | 0.459 | 0.514 | 0.456 | 0.463 | 0.464 | 0.921 | 1.12 | 0.729 | 0.627 | 0.328 | 1.11 | 1.2 | 0.949 | 0.947 | 0.468 | 0.944 | 1.08 | 0.968 |  | 0.78
NCI-H1355 | 0.343 | 0.326 | 0.337 | 0.372 | 0.341 | 1.23 | 1.3 | 1.16 | 1.02 | 0.752 | 1.09 | 1.06 | 1.04 | 0.984 | 0.938 | 0.904 | 0.754 | 0.642 | 0.706 | 0.538
NCI-H1437 | 0.539 | 0.521 | 0.582 | 0.58 | 0.661 | 0.639 |  | 0.565 | 0.385 | 0.475 | 0.911 | 0.881 | 0.771 | 0.721 | 0.703 | 1.18 | 1.12 | 1.05 | 1.08 | 0.896
NCI-H1651 | 0.63 | 0.663 | 0.391 | 0.585 | 0.543 | 1.07 | 1.13 | 0.86 | 0.902 | 0.852 | 0.881 | 1.01 | 0.77 |  | 0.68 | 0.503 | 0.521 | 0.416 | 0.328 | 0.246
NCI-H1666 |  |  | 0.747 | 0.612 | 0.604 | 0.894 | 0.896 | 0.767 | 0.609 | 0.662 | 1.02 | 0.769 | 0.546 | 0.673 | 0.596 | 0.929 | 0.946 | 0.783 | 0.653 | 0.611
NCI-H1734 | 0.539 | 0.579 |  | 0.54 | 0.481 | 1.27 | 0.996 | 0.912 | 0.934 | 0.74 | 1.28 | 1.1 | 0.909 | 1.06 | 0.829 | 0.584 | 0.555 | 0.457 | 0.505 | 0.36
NCI-H1755 | 0.728 | 0.715 | 0.718 | 0.805 | 0.858 | 1.08 | 0.934 |  | 1.04 | 0.958 | 1.03 | 1.07 | 0.969 | 1.12 | 1.09 | 0.492 | 0.53 | 0.356 | 0.65 | 0.407

Source: the supplement of paper PMC10307832
